Reference: paper PMC12479633, “A Phase IIa, Single-Blind, Placebo-Controlled, Parallel-Group Study to Assess Safety, Tolerability, and Pharmacokinetics/Pharmacodynamics of Brensocatib in Adults with Cystic Fibrosis” (Clinical Pharmacokinetics, 2025)
Read-outs that look alike come from different tables or passages of the source.

Tests used:
[1] = Plasma pharmacokinetics of brensocatib in adults with CF, once-daily oral dosing for 28 days (noncompartmental analysis); type: in vivo, human; conditions: human, plasma, oral
Method: This was a phase IIa, single-blind, randomized, placebo-controlled trial with a parallel-group, multiple-dose design aimed at evaluating the PK, PD, safety, and tolerability of brensocatib in adults with CF (NCT05090904).
Participants were assigned to receive a once-daily dose of brensocatib (10 mg, 25 mg, or 40 mg) or placebo for 28 days.
Plasma PK samples were collected on days 1 (at predose and 0.5, 1, 2, 4, 6, 8, and 24 h postdose), 14 (at predose and 2 h postdose), and 28 (at predose and 0.5, 1, 2, 4, 6, 8, 24, and 168 h postdose). The concentration of brensocatib in the plasma samples was analyzed using a validated liquid chromatography with tandem mass spectrometry method at an external service provider with a quantification range of 0.25–150 ng/mL. The overall intra- and inter-batch precision and accuracy were −2.7 to 2.0% and −1.8 to 0.8%, respectively. The long-term stability was established in human plasma for 346 days at −70 °C. The validation method details were published internally and stored within Insmed’s internal document repository.
Descriptive statistics for continuous variables were calculated. Categorical variables were summarized by counts and by percentage of participants in the corresponding categories. No formal hypothesis was tested. Changes from baseline values were calculated and presented for both safety and efficacy data at each visit, including the percent change from baseline. PK parameters for brensocatib were assessed using noncompartmental analysis via Phoenix® WinNonlin® version 8.2 or later. SAS version 9.4 or higher was employed to prepare PK outputs.
Analysis of dose dependency for brensocatib Cmax, AUC0–24, and area under the concentration–time curve from time 0 to last measurable concentration (AUClast) after single-dose administration and at steady state (day 28) were performed using a power law model. Dose normalization of Cmax, AUC0–24, and AUClast was performed only when a linear and dose-dependent trend was observed.

cathepsin G (CatG) = test: CatG activity in sputum of adults with CF; type: in vivo, human
Text: If a participant experienced an intercurrent event, defined as use of antibiotics during an acute event that could influence NSP levels, the data were not included in the PD analysis. In assessing treatment-emergent adverse events (TEAEs), the “while-on-treatment” strategy was implemented, which encompassed the 28-day period following the final dose of study drug. With this strategy, data collected prior to the occurrence of the intercurrent event, that is, to discontinuation of brensocatib, were included in the analysis.
On the basis of the comparability of PK between participants with and without concomitant use of CFTR modulators, NSP activity (NE, CatG, PR3) in blood and sputum was analyzed using the combined data sets without the CFTR modulator stratum.

neutrophil elastase (NE) = test system: neutrophil elastase (NE); design: method as in earlier work; conditions: Healthy adults, cited from earlier work
[2] = design: method as in PMID 35411669, PMID 29484635; conditions: cited from earlier work
[3] = 10 mg QD, Day 28, n = 8, mean (CV%)
[4] = 25 mg QD, Day 28, n = 7, mean (CV%)
[5] = 40 mg QD, Day 28, n = 8, mean (CV%)

Cn1c(=O)oc2ccc(-c3ccc(C[C@@H](C#N)NC(=O)[C@@H]4CNCCCO4)cc3)cc21 [Brensocatib]
Cmax ([1]; 10 mg, 10 mg QD, Day 1, n = 8, mean (CV%), with/without CFTR modulators, read-out: Cmax): 67.3 ng/mL
AUC(0-t) ([1]; 10 mg, 10 mg QD, Day 28, n = 8, mean (CV%), read-out: AUC0–24): 1100 ng·h/mL
AUC(0-t) ([1]; 10 mg, 10 mg QD, Day 28, n = 8, mean (CV%), read-out: AUClast): 2380 ng·h/mL
AUC(0-t) ([1]; 25 mg, 25 mg QD, Day 1, n = 8, mean (CV%), read-out: AUC0–24): 1630 ng·h/mL
AUC(0-t) ([1]; 25 mg, 25 mg QD, Day 1, n = 8, mean (CV%), read-out: AUClast): 1630 ng·h/mL
AUC(0-t) ([1]; 25 mg, 25 mg QD, Day 28, n = 7, mean (CV%), read-out: AUC0–24): 3800 ng·h/mL
AUC(0-t) ([1]; 25 mg, 25 mg QD, Day 28, n = 7, mean (CV%), read-out: AUClast): 8930 ng·h/mL
Cmax ([1]; 25 mg, 25 mg QD, Day 28, n = 7, mean (CV%), read-out: Cmax): 249 ng/mL
AUC(0-t) ([1]; 40 mg, 40 mg QD, Day 1, n = 8, mean (CV%), read-out: AUC0–24): 3690 ng·h/mL
AUC(0-t) ([1]; 40 mg, 40 mg QD, Day 1, n = 8, mean (CV%), read-out: AUClast): 3690 ng·h/mL
Cmax ([1]; 40 mg, 40 mg QD, Day 1, n = 8, mean (CV%), read-out: Cmax): 342 ng/mL
AUC(0-t) ([1]; 40 mg, 40 mg QD, Day 28, n = 8, mean (CV%), read-out: AUC0–24): 6320 ng·h/mL
AUC(0-t) ([1]; 40 mg, 40 mg QD, Day 28, n = 8, mean (CV%), read-out: AUClast): 15300 ng·h/mL
Cmax ([1]; 40 mg, 40 mg QD, Day 28, n = 8, mean (CV%), read-out: Cmax): 490 ng/mL
AUC(0-t) ([1]; day 1, CFTR modulator stratum, 10-40 mg QD, read-out: mean AUC0–24 across brensocatib dose groups): 798 to 4120 ng·h/mL
AUC(0-t) ([1]; day 1, CFTR modulator stratum, 10-40 mg QD, read-out: mean AUClast across brensocatib dose groups): 798 to 4120 ng·h/mL
Cmax ([1]; day 1, CFTR modulator stratum, 10-40 mg QD, read-out: mean Cmax across brensocatib dose groups): 60.9 to 365 ng/mL
AUC(0-t) ([1]; day 1, non-CFTR modulator stratum, 10-40 mg QD, read-out: mean AUC0–24 across brensocatib dose groups): 1120 to 2400 ng·h/mL
AUC(0-t) ([1]; day 1, non-CFTR modulator stratum, 10-40 mg QD, read-out: mean AUClast across brensocatib dose groups): 1120 to 2400 ng·h/mL
Cmax ([1]; day 1, non-CFTR modulator stratum, 10-40 mg QD, read-out: mean Cmax across brensocatib dose groups): 86.4 to 274 ng/mL
AUC(0-t) ([1]; day 28, CFTR modulator stratum, 10-40 mg QD, read-out: mean AUC0–24 across brensocatib dose groups): 1080 to 7360 ng·h/mL
AUC(0-t) ([1]; day 28, CFTR modulator stratum, 10-40 mg QD, read-out: mean AUClast across brensocatib dose groups): 2440 to 17700 ng·h/mL
Cmax ([1]; day 28, CFTR modulator stratum, 10-40 mg QD, read-out: mean Cmax across brensocatib dose groups): 92 to 538 ng/mL
AUC(0-t) ([1]; day 28, non-CFTR modulator stratum, 10-40 mg QD, read-out: mean AUC0–24 across brensocatib dose groups): 1190 to 3740 ng·h/mL
AUC(0-t) ([1]; day 28, non-CFTR modulator stratum, 10-40 mg QD, read-out: mean AUClast across brensocatib dose groups): 2210 to 9540 ng·h/mL
Cmax ([1]; day 28, non-CFTR modulator stratum, 10-40 mg QD, read-out: mean Cmax across brensocatib dose groups): 84.3 to 348 ng/mL
AUC(0-inf) [1, 3]: 2430 ng·h/mL
Vd/F [1, 3]: 423 L
half-life ([1]; 10 mg QD, Day 28, n = 8, mean (CV%), read-out: t1/2 (converted)): 30 h
Tmax ([1]; 10 mg QD, Day 28, n = 8, median (range), read-out: Tmax): 1.9 h
AUC(0-inf) [1, 4]: 9300 ng·h/mL
Vd/F [1, 4]: 332 L
half-life ([1]; 25 mg QD, Day 28, n = 7, mean (CV%), read-out: t1/2 (converted)): 33.1 h
AUC(0-inf) [1, 5]: 16200 ng·h/mL
Vd/F [1, 5]: 398 L
half-life ([1]; 40 mg QD, Day 28, n = 8, mean (CV%), read-out: t1/2 (converted)): 38.5 h
Tmax ([1]; day 1 (after the first dose) and day 28 (steady state), across doses, read-out: median Tmax postdose): 1.5 to 2 h
half-life ([1]; range over CFTR modulator and non-CFTR modulator strata, read-out: elimination t1/2): 24.7 to 49.5 h
CatG, median % reduction relative to baseline (cathepsin G (CatG); 10 mg QD, day 29, n = 5): 51.3 (n = 5) %
CatG, median % reduction relative to baseline (cathepsin G (CatG); 25 mg QD, day 29, n = 3): 0 (n = 3) %
CatG, median % reduction relative to baseline (cathepsin G (CatG); 40 mg QD, day 29, n = 2): 0 (n = 2) %
Median % reduction of NE activity in the blood (neutrophil elastase (NE); 10 mg, n = 6): 34.8 (n = 6) %
Median % reduction of NE activity in the blood (neutrophil elastase (NE); 25 mg, n = 7): 42.6 (n = 7) %
Median % reduction of NE activity in the blood (neutrophil elastase (NE); 40 mg, n = 7): 55.1 (n = 7) %
urinary excretion ([2]; at steady state): approximately 20%
elimination half-life ([2]; single doses of 5–120 mg and QD dosing at 10–40 mg): 20 to 30 h
steady state accumulation ([2]; single or multiple dosing): approximately twofold
